Data taken from patent publication US20170000902A1, “EGFR-TARGETED NANOPARTICLES” (CALIFORNIA INSTITUTE OF TECHNOLOGY, priority 2014, published 2017).

System: EGFR mRNA
Assay: siEGFR knock down of EGFR mRNA expression
Assay type: cell-based
Settings: 50 picomolar concentration of siRNA; expression knocked down to this level
Excerpt: Nanoparticles were designed to specifically target EGFR-positive non-small cell lung cancer (NSCLC) cells and deliver siRNA to hinder EGFR expression. The nanoparticles have 4 primary components (see FIG. 1): • 1. A biocompatible cationic mucic acid polymer (cMAP) that encapsulates siRNA with a charge ratio (+/−) of 1; • 2. 5-nitrophenyl boronic acid-mPEG (5-nPBA-mPEG), which binds to cMAP through boronic acids' interaction with diols present on cMAP, to form a coating of methoxy-polyethylene glycol (mPEG) in order to ensure particle stability in serum; • 3. Cetuximab, the targeting agent for the particle, also attached to cMAP through a 5-nitrophenyl boronic acid-PEG entity; and • 4. siRNA against EGFR (siEGFR), able to knock down EGFR mRNA expression to 20% at a 50 picomolar concentration (see SEQ ID NO: 1). The resulting nanoparticles are cetuximab-conjugated cMAP-siEGFR nanoparticles.

Substance: siEGFR: siRNA against EGFR, SEQ ID NO: 1 bound to SEQ ID NO: 2 (chain 1 UAAUUUCCAAAUUCCCAAGGAC; chain 2 CCUUGGGAAUUUGGAAAUUAUA; listed as RNA, chemistry not given here)
- EGFR mRNA expression after knock down: 20%
